Laboratory results as given in ChEMBL document CHEMBL1201862, “PubChem BioAssay data set” (2004).
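Method: 48-hour compound exposure of cells in 96-well plates, five concentrations, linear interpolation of endpoints. At the GI50, growth is halved.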 Calls of active or inactive are those of the source. No stated cut-off is given here; in the data, active = GI50 up to about 1.1 µM and inactive = higher.

Key:
Test in all cases: growth of human tumour cells (NCI), 48 h
OVCAR-8 = tested on: OVCAR-8
MDA-MB-231 = tested on: MDA-MB-231
T47D = tested on: T47D
DU-145 = tested on: DU-145
SK-MEL-28 = tested on: SK-MEL-28
Malme-3M = tested on: Malme-3M
KM12 = tested on: KM12
RXF 393 = tested on: RXF 393
SK-OV-3 = tested on: SK-OV-3
CAKI-1 = tested on: CAKI-1
SF-295 = tested on: SF-295
SR = tested on: SR
HL-60 = tested on: HL-60
K562 = tested on: K562
EKVX = tested on: EKVX
CCRF-CEM = tested on: CCRF-CEM
RPMI-8226 = tested on: RPMI-8226
HCT-15 = tested on: HCT-15
LOX IMVI = tested on: LOX IMVI
IGROV-1 = tested on: IGROV-1
SF-268 = tested on: SF-268
786-0 = tested on: 786-0
SNB-75 = tested on: SNB-75
SN12C = tested on: SN12C
MCF7 = tested on: MCF7
M14 = tested on: M14
UACC-62 = tested on: UACC-62
HOP-62 = tested on: HOP-62
SW-620 = tested on: SW-620
TK-10 = tested on: TK-10
SK-MEL-5 = tested on: SK-MEL-5
A549 = tested on: A549
HT-29 = tested on: HT-29
PC-3 = tested on: PC-3
HCC 2998 = tested on: HCC 2998
MDA-N = tested on: MDA-N
UACC-257 = tested on: UACC-257
COLO 205 = tested on: COLO 205
NCI-H23 = tested on: NCI-H23
A498 = tested on: A498
HCT-116 = tested on: HCT-116
SK-MEL-2 = tested on: SK-MEL-2
MOLT-4 = tested on: MOLT-4
MDA-MB-435 = tested on: MDA-MB-435
NCI-H460 = tested on: NCI-H460
OVCAR-4 = tested on: OVCAR-4
U-251 = tested on: U-251
NCI/ADR-RES = tested on: NCI/ADR-RES
NCI-H522 = tested on: NCI-H522

| SMILES | GI50 (Malme-3M) | GI50 (KM12) | GI50 (RXF 393) | GI50 (SK-OV-3) | GI50 (CAKI-1) | GI50 (SR) | GI50 (HL-60) | GI50 (CCRF-CEM) | GI50 (RPMI-8226) | GI50 (HCT-15) | GI50 (LOX IMVI) | GI50 (IGROV-1) | GI50 (786-0) | GI50 (MCF7) | GI50 (M14) | GI50 (UACC-62) | GI50 (SW-620) | GI50 (HT-29) | GI50 (PC-3) | GI50 (HCC 2998) | other results |
| --- | --- | --- | --- | --- | --- | --- | --- | --- | --- | --- | --- | --- | --- | --- | --- | --- | --- | --- | --- | --- | --- |
| COc1ccc(C(=O)/C=C/c2ccc(OCC(=N)N)cc2)cc1OC | > 10 µM (inactive) | 2.64 µM (inactive) | 4.63 µM (inactive) | 4.01 µM (inactive) | 5.05 µM (inactive) | 1.64 µM (inactive) | 1.95 µM (inactive) | 2.61 µM (inactive) | 2.34 µM (inactive) | > 10000 nM | 2.52 µM (inactive) | > 10 µM (inactive) | 5.04 µM (inactive) | 3.24 µM (inactive) | 5.87 µM (inactive) | > 10 µM (inactive) | 3.84 µM (inactive) | 3.1 µM (inactive) | 3.84 µM (inactive) | 6.4 µM (inactive) | GI50 (OVCAR-8): 3.62 µM (inactive); GI50 (MDA-MB-231): > 10 µM (inactive); GI50 (T47D): 3.86 µM (inactive); GI50 (DU-145): > 10 µM (inactive); GI50 (SK-MEL-28): 8.73 µM (inactive); GI50 (SF-295): > 10 µM (inactive); GI50 (K562): 2.37 µM (inactive); GI50 (EKVX): 7.36 µM (inactive); GI50 (SF-268): 3.61 µM (inactive); GI50 (SNB-75): 4.53 µM (inactive); GI50 (SN12C): > 10 µM (inactive); GI50 (HOP-62): 5.75 µM (inactive); GI50 (TK-10): > 10 µM (inactive); GI50 (SK-MEL-5): 7.93 µM (inactive); GI50 (A549): 5.97 µM (inactive); GI50 (MDA-N): 3.6 µM (inactive); GI50 (UACC-257): 6.79 µM (inactive); GI50 (COLO 205): 3.34 µM (inactive); GI50 (NCI-H23): 3.33 µM (inactive) |
| OC(c1cc(-c2ccc(C(F)(F)F)cc2)nc(C(F)(F)F)c1)C1CCCCN1 (configuration not stated) [ENPIROLINE PHOSPHATE] | 1.78 µM (inactive) | 1.87 µM (inactive) | 1.78 µM (inactive) | 2.3 µM (inactive) | 5.53 µM (inactive) | 2.33 µM (inactive) | 2.01 µM (inactive) | 1.87 µM (inactive) | 2.61 µM (inactive) | 2180 nM | 1.73 µM (inactive) | 1.73 µM (inactive) | 1.89 µM (inactive) | 1.8 µM (inactive) | 1.55 µM (inactive) | 1.78 µM (inactive) | 1.85 µM (inactive) | 1.95 µM (inactive) | 2.49 µM (inactive) | 1.69 µM (inactive) | GI50 (A498): 2.24 µM (inactive); GI50 (HCT-116): 2 µM (inactive); GI50 (SK-MEL-2): 2.02 µM (inactive); GI50 (MOLT-4): 1.86 µM (inactive); GI50 (MDA-MB-435): 1.86 µM (inactive); GI50 (NCI-H460): 2.08 µM (inactive); GI50 (OVCAR-4): 1.87 µM (inactive); GI50 (U-251): 1.88 µM (inactive); GI50 (NCI/ADR-RES): 2.62 µM (inactive); GI50 (NCI-H522): 1.69 µM (inactive); GI50 (MDA-N): 1.67 µM (inactive); GI50 (UACC-257): 2.03 µM (inactive); GI50 (COLO 205): 1.82 µM (inactive) |
